Tests used:
CjapOBP1 [1] = target: T1, CjapOBP1 (Cybister japonicus, UniProt A0A1Q1N696); experiment: Competitive fluorescence binding assay with 1-NPN as reporter; settings: protein 5 μM, 1-NPN 2 μM, competitor up to 16 μM
T1 sequence (A0A1Q1N696 17-136): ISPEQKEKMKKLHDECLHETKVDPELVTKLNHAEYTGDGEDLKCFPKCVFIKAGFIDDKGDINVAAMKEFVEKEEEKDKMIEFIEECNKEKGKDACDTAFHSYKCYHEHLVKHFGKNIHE
Excerpt: (§1) To characterize the ligand-binding properties of the two OBPs, we performed fluorescence binding assays with several chemicals having different structures using N-phenyl-1-naphthylamine (1-NPN) as a fluorescent reporter. In the absence of any information about potential semiochemicals for this insect, as well as for related species, we selected some common plant volatiles, such as citral, coniferyl aldehyde, eugenol and 2-isobutyl-3-mthoxypyrazine, and structurally similar compounds. 1-NPN binds CjapOBP1 and CjapOBP2 with dissociation constants of 3.3 and 2.1 μM respectively (Fig. 5A). Among the ligands tested, we identified a single good ligand for each protein, citral for CjapOBP1 and coniferyl aldehyde for CjapOBP2 (Fig. 5B,C).
(§2) Figure 5 Affinity of CjapOBPs to candidate chemical ligands. (A) Both CjapOBP1 and CjapOBP2 bind the fluorescent probe 1-NPN, with dissociation constants of 3.3 μM and 2.1 μM, respectively. (B) Competitive binding curves of selected ligands to the two CjapOBPs. Mixtures of proteins (5 μM) and 1-NPN (2 μM) were titrated with 1mM solutions of the ligands in methanol. […] (C) The chemical structures of the chemicals applied.
(§3) To measure the affinity of the fluorescent ligand N-phenyl-1-naphthylamine (1-NPN), a 2 μM solution of the protein in 50 mM Tris-HCl (pH 7.4) was titrated with aliquots of 1 mM 1-NPN in methanol to final concentrations of 1–16 μM. The probe was excited at 337 nm, and emission spectra were recorded between 380 and 450 nm. The affinity of other ligands was measured in competitive binding assays, using the protein and the fluorescent reporter 1-NPN at the concentration of 5 μM and 2 μM respectively, while increasing the final concentration of each competitor up to 16 μM. Dissociation constants for 1-NPN were evaluated from Scatchard plots of the binding data, and other ligands were calculated from the corresponding IC50 values, using the equation: KD = [IC50]/1+[1-NPN]/K1-NPN, [1-NPN] being the free concentration of 1-NPN and K1-NPN being the dissociation constant of the complex protein/1-NPN.

CjapOBP1 [2] = target: T1, CjapOBP1; experiment: Fluorescence binding assay, direct titration with 1-NPN; settings: recombinant CjapOBP1, 2 μM protein in 50 mM Tris-HCl pH 7.4, titrated with 1-NPN 1–16 μM; Scatchard plot; read-out: dissociation constant
Excerpt: as §1, §2
(§4) To measure the affinity of the fluorescent ligand N-phenyl-1-naphthylamine (1-NPN), a 2 μM solution of the protein in 50 mM Tris-HCl (pH 7.4) was titrated with aliquots of 1 mM 1-NPN in methanol to final concentrations of 1–16 μM. […]

CjapOBP2 [3] = target: T2, CjapOBP2 (Cybister japonicus, UniProt A0A1Q1N694); experiment: as above; settings: recombinant CjapOBP2, 2 μM protein in 50 mM Tris-HCl pH 7.4, titrated with 1-NPN 1–16 μM; Scatchard plot; read-out: dissociation constant
T2 sequence (A0A1Q1N694 entry or part of it): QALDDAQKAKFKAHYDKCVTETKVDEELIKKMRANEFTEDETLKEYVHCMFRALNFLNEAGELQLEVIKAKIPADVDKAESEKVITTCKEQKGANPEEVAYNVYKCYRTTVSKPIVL
Excerpt: as §1, §2, §4

CjapOBP2 [4] = target: T2, CjapOBP2; experiment: Competitive fluorescence binding assay with 1-NPN as reporter; settings: protein 5 μM, 1-NPN 2 μM, competitor up to 16 μM
Excerpt: as §1, §2, §3

## CC(C)=CCCC(C)=CC=O (mixture of isomers) [citral]
CjapOBP1 [1]
  binding to CjapOBP1 (displacement of 1-NPN): good ligand

## c1ccc(Nc2cccc3ccccc23)cc1 [1-NPN, N-phenyl-1-naphthylamine]
CjapOBP1 [2]
  Kd: 3.3 µM
CjapOBP2 [3]
  Kd: 2.1 µM

## C=CCc1ccc(O)c(OC)c1 [eugenol]
CjapOBP2 [4]
  binding to CjapOBP2 (displacement of 1-NPN): did not show appreciable binding

## COc1cc(CCC(=O)O)ccc1O [dihydroferulic acid]
CjapOBP2 [4]
  binding to CjapOBP2 (displacement of 1-NPN): did not show appreciable binding

## CO/C(C=O)=C\c1ccccc1 [α-methoxycinnamaldehyde]
CjapOBP2 [4]
  binding to CjapOBP2 (displacement of 1-NPN): did not show appreciable binding

## COc1cc(/C=C/C=O)ccc1O [coniferyl aldehyde]
CjapOBP2 [4]
  binding to CjapOBP2 (displacement of 1-NPN): good ligand

Source: publication PMC4992826, “Male tarsi specific odorant-binding proteins in the diving beetle Cybister japonicus sharp” (Scientific Reports, 2016)
